Laboratory results as given in patent publication US5900406A, “Use of antibiotics of the type 2-deoxystreptamine substituted with aminosugars to inhibit growth of microorganisms containing group I introns” (NZYM, Inc., priority 1991, dated 1999).

Legend:
[1] = system: td intron (group I intron of the thymidylate synthase gene of phage T4, truncated version); conditions: td intron self-splicing; read-out: Michaelis constant (Km) for GTP; cited from earlier work
[2] = system: td intron (group I intron of the thymidylate synthase gene of phage T4, truncated version); format: biochemical
Experimental: In vitro-transcribed and gel-purified^8 preRNA from a truncated version of the td intron^21 was incubated in a splicing buffer (50 mM Tris-HCl, pH 7.5, 5 mM MgCl2, 0.4 mM spermidine) for 10 min at 37° C. with GTP and gentamicin as indicated. Samples were separated on 5% acrylamide/7 M urea gels. RNA species are as follows: In-E2, intron-exon 2; L-ln, linear intron; E1-E2, ligated exons; E1, exon 1.
FIGS. 3a-c, Splicing experiments were done with the td intron as described in FIG. 2a, using several members of each family of aminoglycoside antibiotics (gentamicin, kanamycin and neomycin). Structures of the antibiotics can be found in Davies and Yagisaura in Biochemistry and Genetic Function Of Commercially Important Antibiotics, p. 329-354, Addison-Wesley, London, (1983) "Conc" is the antibiotic concentration at which about 50% inhibition was observed.
To monitor the splice process in vitro precursor RNA containing exon1, intron and exon2 was synthesized by in vitro transcription using bacteriophage RNA polymerase. During transcription, a radioactive labeled nucleotide was present in the nucleotide mixture and was incorporated in the RNA. This radioactive labeled RNA was then subjected to splicing conditions and after reaction the RNA splice products were separated from each other by electrophoresis on a denaturing acrylamide gel. The gel was dried and exposed for autoradiography.
Unspliced precursor RNA from the thymidylate synthase gene of the phage T4, which had been transcribed in vitro, and purified as previously described, (Schroeder, R., von Ahsen, U. & Belfort, M. Biochemistry 30, 3295-3303 (1991)) was incubated with increasing amounts of gentamicin under normal splicing conditions.
(§1) Materials and Methods: In vitro splicing experiments were performed with a truncated version of the td gene, containing 79 nt of exon I, 265 nt of intron sequences containing only the catalytic core (delta P6-2) and 21 nt of exon H (Schroeder, von Ahsen, & Belfort, 199 1, Biochemistry 30, 3295). The plasmids containing the Tetrahymena rRNA intron and the yeast mitochondrial cob intron I (the group II intron) were pBGST7 (Been & Cech, 1986, Cell 47, 207) and pBSbIl (Schmelzer and Schweyen, 1986, Cell 46, 557), respectively. The sunY intron is described in Michel et al. (1990, Genes & Development 4, 777). DNA was prepared by the alkaline-lysis procedure and linearized with appropriate restriction enzymes. Transcription was performed in a total volume of 20 μl at 30° C. for one (1) hour in buffer containing 40 mM Tris-HCl pH 7.5, 3 mM MgCl2, 0.4 mM spermidine, 1 mM of each NTP, 5 mM […], 10 units T7 RNA polymerase (Boehringer Mannheim), 10 μCi alpha-^35 S-CTP and 10 units RNAse inhibitor (Boehringer Mannheim). The reaction mixture was loaded on a 5% polyacrylamide/7 M urea gel. Precursor RNA was cut out of the gel and soaked in 400 μl elution buffer (10 mM Tris-HCl pH 7.5, 10 mM EDTA, 3.5 M NH4 OAc, 0.1% SDS) for two hours. After ethanol precipitation, the RNA was dissolved in H2 O-- before splicing experiments were performed the RNA was incubated in splicing buffer (40 mM Tris-HCl pH 7.5, 8 mM MgCl2, 0.4 mM spermidine) for 2 min at 56° C. For splicing of the suny intron and the Tetrahymena intron 50 mM NH4 Cl or 200 mM NaCl were added, respectively. Splicing was initiated by addition of guanosine at the appropriate concentration at 37° C. When splicing was to be inhibited by antibiotic, the antibiotic was added immediately before the guanosine. Splicing reactions were performed at 37° C. for 10'.

[3] = system: group II bI1 intron (first intron of the yeast mitochondrial apocytochrome b gene); assay: In vitro splicing of a group II intron in the presence of aminoglycosides; format: biochemical; conditions: concentrations ≤5 mM
Experimental: FIG. 2c, Precursor -A of the group II bli intron (first intron of the yeast mitochondrial apocytochrome b gene) was incubated in a splicing buffer (40 mM Tris-HCl, pH 7.5, 60 mM MgCl2, 625 mM (NH4)2 SO4, 2 mM spermidine) at 42° C. for 60 min with increasing amounts of gentamicin as indicated. Splicing products were separated as in FIG. 2 A. C is an unincubated control.
(§2) Materials and Methods: In vitro splicing experiments were performed with a truncated version of the td gene, containing 79 nt of exon I, 265 nt of intron sequences containing only the catalytic core (delta P6-2) and 21 nt of exon H (Schroeder, von Ahsen, & Belfort, 199 1, Biochemistry 30, 3295). The plasmids containing the Tetrahymena rRNA intron and the yeast mitochondrial cob intron I (the group II intron) were pBGST7 (Been & Cech, 1986, Cell 47, 207) and pBSbIl (Schmelzer and Schweyen, 1986, Cell 46, 557), respectively. The sunY intron is described in Michel et al. (1990, Genes & Development 4, 777). DNA was prepared by the alkaline-lysis procedure and linearized with appropriate restriction enzymes. Transcription was performed in a total volume of 20 μl at 30° C. for one (1) hour in buffer containing 40 mM Tris-HCl pH 7.5, 3 mM MgCl2, 0.4 mM spermidine, 1 mM of each NTP, 5 mM DTIC, 10 units T7 RNA polymerase (Boehringer Mannheim), 10 μCi alpha-^35 S-CTP and 10 units RNAse inhibitor (Boehringer Mannheim). […]

[4] = system: sunY intron (shortened version, construct SYC1.3); assay: In vitro splicing inhibition of the sunY group I intron (GTP incorporation assay); format: biochemical, T4-phage
Experimental: as §1, with “DNA” for “Materials and Methods: In vitro splicing experiments were performed with a truncated version of the td gene, containing 79 nt of exon I, 265 nt of intron sequences containing only the catalytic core (delta P6-2) and 21 nt of exon H (Schroeder, von Ahsen, & Belfort, 199 1, Biochemistry 30, 3295). The plasmids containing the Tetrahymena rRNA intron and the yeast mitochondrial cob intron I (the group II intron) were pBGST7 (Been & Cech, 1986, Cell 47, 207) and pBSbIl (Schmelzer and Schweyen, 1986, Cell 46, 557), respectively. The sunY intron is described in Michel et al. (1990, Genes & Development 4, 777). DNA”, “10'. […] Samples were separated on 5% acrylamide/7 M urea gels.” for “10'.”

[5] = system: group I intron from the ribosomal RNA from Tetrahymena thermophila; assay: In vitro splicing inhibition of the Tetrahymena rRNA group I intron; format: biochemical; conditions: read-out: concentration giving 50% inhibition of splicing
Experimental: To see whether this inhibition could be extended to all group I introns, the group I intron from the ribosomal RNA from Tetrahymena thermophila was tested for sensitivity towards gentamicin and again the splice reaction was inhibited. To test the specificity of this interaction of gentamicin with this type of catalytic RNA […]
as §2, with “enzymes.” for “enzymes. Transcription was performed in a total volume of 20 μl at 30° C. for one (1) hour in buffer containing 40 mM Tris-HCl pH 7.5, 3 mM MgCl2, 0.4 mM spermidine, 1 mM of each NTP, 5 mM DTIC, 10 units T7 RNA polymerase (Boehringer Mannheim), 10 μCi alpha-^35 S-CTP and 10 units RNAse inhibitor (Boehringer Mannheim).”

Compound	Km [1] [µM]	lowest concentration with splicing inhibition activity ([2]; activity at a concentration as low as) [µM]	antibiotic concentration affecting the first step of splicing ([2]; first step affected only at this concentration) [µM]	IC50 ([2]; in vitro splicing, 37° C., 10 min, read-out: concentration giving approximately 50% inhibition of the second splice step of the td intron) [µM]	inhibition of splicing of the group II intron [3]	concentration at which the second step (cleavage at the 3' splice-site and exon ligation) is completely inhibited ([2]; GTP 2.5 μM or 100 μM) [µM]	effect on the first step of splicing ([2]; concentrations ≤2 mM, whatever the guanosine concentration)	concentration to which the sunY intron is sensitive [4] [µM]	IC50 [5] [µM]
Nc1nc2c(ncn2[C@@H]2O[C@H](COP(=O)(O)OP(=O)(O)OP(=O)(O)O)[C@@H](O)[C@H]2O)c(=O)[nH]1 [GTP]	1	–	–	–	–	–	–	–	–
NC[C@H]1O[C@H](O[C@H]2[C@H](O)[C@@H](O[C@H]3O[C@H](CO)[C@@H](O)[C@H](N)[C@H]3O)[C@H](N)C[C@@H]2N)[C@H](N)C[C@@H]1O [Tobramycin]	–	0.5	100	~0.5	not inhibited	–	–	–	–
gentamicin	–	–	–	–	not inhibited	2.5	little effect	100	~100
